# Source: US4041076A, “Immunoassay for pharmacologically active phenethylamines” (Hoffmann-La Roche Inc., priority 1976, dated 1977)
# Tests used:
# [1] = cross-reactivity expressed as relative reactivity; Braitin and Sunshine 1973; cited from earlier work
# [2] = system: amphetamine antibody (pooled antisera); experiment: Radioimmunoassay for amphetamine (displacement of 125I-labeled amphetamine analog from antibody); assay type: binding, goats; conditions: for Relative Reactivity, Radioimmunoassay: cross-reactivity expressed as relative reactivity; for Cross-reactivity: concentration of amphetamine equivalent in the assay to 10 μg/ml. of the test drug: pooled antisera selected for low cross-reactivity
# [3] = cross-reactivity expressed as relative reactivity; Braitin and Sunshine 1973; cited from earlier work; remark: listed apart in the source
SMILES,"Relative Reactivity, FRAT [1]","Relative Reactivity, Radioimmunoassay [2]",Cross-reactivity: concentration of amphetamine equivalent in the assay to 10 μg/ml. of the test drug ([2]; test drug at 10 μg/ml),"Relative Reactivity, EMIT [3]","Amphetamine equivalent when tested with 10 μg/ml. of test drug, individual sera ([2]; individual sera (not the selected pool), test drug at 10 μg/ml)"
"CN[C@@H](C)[C@H](O)c1ccccc1 [Ephedrine (1-form), Ephedrine]",0.15,0.0003,0.003 µg/mL,0.2,
NCCc1ccc(O)c(O)c1 [Dopamine],,,0.015 µg/mL,,
CC(N)C(O)c1ccccc1 (centres unmarked) [Phenylpropanolamine],,,0.17 µg/mL,,
CNC(C)CC1CCCCC1 (centres unmarked) [Propylhexedrine],0.5,0.03,0.3 µg/mL,,
CC(C)NCC(O)c1ccc(O)c(O)c1 (centres unmarked) [Isoproterenol],,,0 µg/mL,,
CC(CCc1ccccc1)NC(C)C(O)c1ccc(O)cc1 (centres unmarked) [Nylidrin],0.1,,,,
NCC(O)c1ccc(O)c(O)c1 (centres unmarked) [Norepinephrine],,,0.003 µg/mL,,
CC1NCCOC1c1ccccc1 (centres unmarked) [Phenmetrazine],,,0.06 µg/mL,,
CNC(C)(C)Cc1ccccc1 [Mephentermine],,,,0.6,
CC(C)(N)Cc1ccccc1 [Phentermine],1.0,0.07,0.7 µg/mL,,2 to 5 µg/mL
CNC(C)CC1CCCC1 (centres unmarked) [Cyclopentamine],0.2,0.02,,0.3,
CC(COc1ccccc1)NC(C)C(O)c1ccc(O)cc1 (centres unmarked) [Isoxsuprine],0.05,0,,0.2,
NCCc1ccc(O)cc1 [Tyramine],,,0.17 µg/mL,,
"COc1ccc2c(c1)C13CCCCC1C(C2)N(C)CC3 (single isomer, unassigned) [Dextromethorphan]",,,0.003 µg/mL,,
